The text below walks through data of patent publication US20260158009A1 (GENZYME CORPORATION, priority 2023, published 2026).

SMILES strings stand for the structures.

One experiment deals with U937 cells. As to the kind of experiment: Cellular assay in U937 cells: activity of RIPK1 inhibitors on TNFα/zVAD.fmk-induced cell death (necroptosis), CellTiter 96 AQueous (MTS) readout. To be noted: Homo sapiens, U-937. Type of experiment: cell-based. In short, it runs like this: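 Necroptosis was measured by viable-cell MTS reduction (4 h, absorbance 490 nm) after overnight (18–24 h) 37° C culture. Cell suspensions of U937 cells carried TNFα (100 ng/ml) plus zVAD.fmk (50 μM) before compound was added. A 10-point curve (10 μM–0.26 nM or 1 μM–0.07 nM) was run in duplicate, normalised to the control lacking TNFα/zVAD.fmk.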

Experiment [1] has as its target T1, hRIPK1 (aa 1-375) fusion protein (Homo sapiens, UniProt Q13546).
T1 construct: hRIPK1 (aa 1-375) fusion protein
T1 sequence (Q13546 1-375): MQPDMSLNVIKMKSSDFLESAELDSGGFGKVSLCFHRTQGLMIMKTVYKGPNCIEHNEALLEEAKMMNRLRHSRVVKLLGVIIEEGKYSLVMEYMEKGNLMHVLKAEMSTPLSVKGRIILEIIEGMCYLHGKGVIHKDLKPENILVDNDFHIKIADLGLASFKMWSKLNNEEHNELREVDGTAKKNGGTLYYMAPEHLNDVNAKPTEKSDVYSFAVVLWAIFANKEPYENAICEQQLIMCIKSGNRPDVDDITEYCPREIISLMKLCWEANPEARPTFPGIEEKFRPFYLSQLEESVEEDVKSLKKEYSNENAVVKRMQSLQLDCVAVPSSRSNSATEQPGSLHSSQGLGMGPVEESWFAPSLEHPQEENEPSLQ
The experiment is described as follows: ADP-Glo kinase assay: catalytic activity of RIPK1 (autophosphorylation, conversion of ATP to ADP). Format: biochemical. In short, it runs like this:
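hRIPK1 (aa 1-375) fusion protein (3.6 μg/ml final) was preincubated 30 min at rt with compound (33300-1.69 nM, 1% DMSO), then 50 μM ATP was added for 240 min at rt. ADP from autophosphorylation was measured by ADP-Glo luminescence and curves fitted by nonlinear regression.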
In general terms: ADP-Glo turns the ADP formed in a reaction into a luminescent signal.

Broadly, the IC50 is the concentration that inhibits the measured activity by half. A low value points to greater potency. As to `Cc1cc([C@@H]2CCON2C(=O)[C@H]2CC[C@H](Cn3cnc4c(F)cc(C#N)cc43)CC2)co1` [compound 38, trans-4-fluoro-1-((4-((S)-3-(5-methylfuran-3-yl)isoxazolidine-2-carbonyl)cyclohexyl)methyl)-1H-benzo[d]imidazole-6-carbonitrile], the IC50 in the experiment with U937 cells is 0.03 µM; in experiment [1], 0.032 µM.
Take `Cc1nc([C@@H]2CCON2C(=O)[C@H]2CC[C@H](Cn3ncc4ncc(C#N)cc43)CC2)cs1` [compound 199, trans-1-[[4-[(3S)-3-(2-methylthiazol-4-yl)isoxazolidine-2-carbonyl]cyclohexyl]methyl]pyrazolo[4,3-b]pyridine-6-carbonitrile]: the IC50 in the experiment with U937 cells came out at 0.051 µM; in experiment [1] it was 0.018 µM.
For `N#Cc1cnc2ccn(C[C@H]3CC[C@H](C(=O)N4OCC[C@H]4c4cc(F)cc(F)c4)CC3)c2c1` [compound 17, trans-1-((4-((S)-3-(3,5-difluorophenyl)isoxazolidine-2-carbonyl)cyclohexyl)methyl)-1H-pyrrolo[3,2-b]pyridine-6-carbonitrile] the same measures were 0.002 µM and 0.021 µM.
For `Cc1ncc(C#N)cc1C[C@H]1CC[C@H](C(=O)N2OCC[C@H]2c2cc(F)cc(F)c2)CC1` [compound 278, trans-5-[[4-[(3S)-3-(3,5-difluorophenyl)isoxazolidine-2-carbonyl]cyclohexyl]methyl]-6-methyl-pyridine-3-carbonitrile] the same measures were 0.003 µM and 0.016 µM.
For `N#Cc1cncc([C@@H]2CCON2C(=O)[C@H]2CC[C@H](Cn3ncc4cc(F)ccc43)CC2)c1` [compound 126, trans-5-((S)-2-(4-((5-fluoro-1H-indazol-1-yl)methyl)cyclohexane-1-carbonyl)isoxazolidin-3-yl)nicotinonitrile], in that order: 0.029 µM and 0.037 µM.
For the molecule `N#Cc1cc(F)cc([C@@H]2CCON2C(=O)[C@H]2CC[C@H](Cn3ncc4ncc(C(N)=O)cc43)CC2)c1` [compound 78, trans-1-((4-((S)-3-(3-cyano-5-fluorophenyl)isoxazolidine-2-carbonyl)cyclohexyl)methyl)-1H-pyrazolo[4,3-b]pyridine-6-carboxamide], the half-maximal inhibitory concentration (IC50) stood at 0.072 µM with U937 cells and 0.04 µM in experiment [1].
For `Cc1ccc(C[C@H]2CC[C@H](C(=O)N3OCC[C@H]3c3cnccn3)CC2)cc1C#N` [compound 139, trans-2-methyl-5-[[4-[(3S)-3-pyrazin-2-ylisoxazolidine-2-carbonyl]cyclohexyl]methyl]benzonitrile] the same measures were 0.002 µM and 0.01 µM.
Consider `Cc1ccc([C@@H]2CCON2C(=O)[C@H]2CC[C@H](Cc3cc(F)c4nc(C)cn4c3)CC2)cn1` [compound 351, trans-[4-[(8-fluoro-2-methylimidazo[1,2-a]pyridin-6-yl)methyl]cyclohexyl]-[(3S)-3-(6-methylpyridin-3-yl)-1,2-oxazolidin-2-yl]methanone], for which the results for the IC50 (in the experiment with U937 cells; in experiment [1]) were 0.149 µM and 0.21 µM, respectively.
As for `N#Cc1cc(F)cc([C@@H]2CCON2C(=O)[C@H]2CC[C@H](Cn3ccc4ncc(OCC5CC5)cc43)CC2)c1` [compound 152, trans-3-[(3S)-2-[4-[[6-(cyclopropylmethoxy)pyrrolo[3,2-b]pyridin-1-yl]methyl]cyclohexanecarbonyl]isoxazolidin-3-yl]-5-fluoro-benzonitrile], the figures for the concentration for half-maximal inhibition (IC50) (in the experiment on U937 cells; in experiment [1]) were 0.003 µM and 0.007 µM, respectively.
For `Cc1nc([C@@H]2CCON2C(=O)[C@H]2CC[C@H](Cn3ccc4ncc(C#N)cc43)CC2)cs1` [compound 198, trans-1-[[4-[(3S)-3-(2-methylthiazol-4-yl)isoxazolidine-2-carbonyl]cyclohexyl]methyl]pyrrolo[3,2-b]pyridine-6-carbonitrile] the same measures were 0.007 µM and 0.017 µM.
For `N#Cc1cc(F)cc([C@@H]2CCON2C(=O)[C@H]2C[C@H](Cn3cnc4cc(F)ccc43)C2)c1` [compound 116, trans-3-fluoro-5-((S)-2-(3-((5-fluoro-1H-benzo[d]imidazol-1-yl)methyl)cyclobutane-1-carbonyl)isoxazolidin-3-yl)benzonitrile] the same measures were 0.491 µM and 0.057 µM.
Turning to `Cc1nc2c(F)cc(C[C@H]3CC[C@H](C(=O)N4OCC[C@H]4c4cncc(F)c4)CC3)cn2n1` [compound 380], the results for the concentration for half-maximal inhibition (IC50) (in the experiment with U937 cells; in experiment [1]) were 0.129 µM and 0.07 µM, respectively.
`Cn1nccc1C[C@H]1CC[C@H](C(=O)N2OCC[C@H]2c2cc(F)cc(F)c2)CC1` [compound 307, trans-[(3S)-3-(3,5-difluorophenyl)isoxazolidin-2-yl]-[4-[(2-methylpyrazol-3-yl)methyl]cyclohexyl]methanone]: the IC50 was found to be 0.002 µM in the experiment on U937 cells and 0.015 µM in experiment [1].
For `Cc1ccc([C@@H]2CCON2C(=O)[C@H]2CC[C@H](Cc3cc(C)ncc3Cl)CC2)cn1` [compound 389, trans-[4-[(5-chloro-2-methylpyridin-4-yl)methyl]cyclohexyl]-[(3S)-3-(6-methylpyridin-3-yl)-1,2-oxazolidin-2-yl]methanone] the same measures were 0.013 µM and 0.02 µM.
For `COc1cncc([C@@H]2CCON2C(=O)[C@H]2CC[C@H](Cn3ncc4ccc(C#N)cc43)CC2)n1` [compound 190, trans-1-[[4-[(3S)-3-(6-methoxypyrazin-2-yl)isoxazolidine-2-carbonyl]cyclohexyl]methyl]indazole-6-carbonitrile], in that order: 0.004 µM and 0.013 µM.
As to `Cc1nc2c(C)cc(C[C@H]3CC[C@](C)(C(=O)N4OCC[C@H]4c4cnc(C)c(F)c4)CC3)cn2n1` [compound 403, trans-[4-[(2,8-dimethyl-[1,2,4]triazolo[1,5-a]pyridin-6-yl)methyl]-1-methylcyclohexyl]-[(3S)-3-(5-fluoro-6-methylpyridin-3-yl)-1,2-oxazolidin-2-yl]methanone], the concentration for half-maximal inhibition (IC50) in the experiment on U937 cells was determined as 0.002 µM; in experiment [1] it was 0.015 µM.
As for `CNC(=O)c1cc(F)cc(C[C@H]2CC[C@H](C(=O)N3OCC[C@H]3c3cc(F)cc(F)c3)CC2)c1` [compound 161, trans-3-[[4-[(3S)-3-(3,5-difluorophenyl)isoxazolidine-2-carbonyl]cyclohexyl]methyl]-5-fluoro-N-methyl-benzamide], the half-inhibitory concentration (IC50) in the experiment with U937 cells is 0.001 µM; in experiment [1], 0.004 µM.
For `NC(=O)c1cc2ncn(C[C@H]3CC[C@H](C(=O)N4OCC[C@H]4c4cc(F)cc(F)c4)CC3)c2cc1F` [compound 75, trans-1-((4-((S)-3-(3,5-difluorophenyl)isoxazolidine-2-carbonyl)cyclohexyl)methyl)-6-fluoro-1H-benzo[d]imidazole-5-carboxamide] the same measures were 0.036 µM and 0.027 µM.
Take `Cc1nc2c(Cl)cc(C[C@H]3CC[C@H](C(=O)N4OCC[C@H]4c4cncc(F)c4)CC3)cn2n1` [compound 382, [4-[(8-chloro-2-methyl-[1,2,4]triazolo[1,5-a]pyridin-6-yl)methyl]cyclohexyl]-[(3S)-3-(5-fluoropyridin-3-yl)-1,2-oxazolidin-2-yl]methanone]: the 50% inhibitory concentration (IC50) in the experiment on U937 cells was 0.008 µM; in experiment [1], 0.026 µM.
